Results on five compounds are retold here after patent US12599672B2, “KRAS proteolysis targeting chimeras” (PAQ Therapeutics Inc., priority 2023, dated 2026).

What all share (assay type): cell-based
The target of one test is T1, KRAS G12D (Homo sapiens, UniProt P01116, G12D).
T1 construct: AsPc-1-KRAS (G12D)-HiBit-KI cell (Pharmaron); host or cells: AsPc-1-KRAS (G12D)-HiBit-KI cells (HiBiT knock-in at the endogenous KRAS locus)
The experiment in a line: KRAS G12D HiBit assay. The conditions noted are these: AsPc-1-KRAS (G12D)-HiBit-KI cell, compound treatment for 24 hours; for DC50: absolute DC50. In outline: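 HiBiT luminescence, detected by adding lytic buffer, substrate and LgBiT protein, served as the KRAS G12D read-out. Compounds, serially diluted 3-fold over 10 points from 0.3 mM DMSO stock, were on cells for 24 h; percent inhibition normalized to cells given 0.1% DMSO only.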
Background: With HiBiT, luminescence reflects the tagged protein that the partner subunit can reach.

The next test concerns the target T2, KRAS G12V (Homo sapiens, UniProt P01116, G12V).
T2 construct: SW620-KRAS (G12V)-HiBit-KI cell (Pharmaron); host or cells: SW620-KRAS (G12V)-HiBit-KI cells (HiBiT knock-in at the endogenous KRAS locus)
Kind of test: KRAS G12V HiBit assay. The following applies: SW620-KRAS (G12V)-HiBit-KI cells, compound treatment for 24 hours, class symbols. In outline: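 Luminescence from lytic Nano-Glo HiBiT detection with LgBiT read KRAS G12V levels after 24 h compound exposure. Dilutions were 10-point, 3-fold, from a 0.3 mM DMSO stock. Degradation activity was normalised to cells given 0.1% DMSO alone.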

For a further test, the target named is T3, KRAS (Homo sapiens, UniProt P01116).
T3 construct: endogenous in cells; host or cells: KE39 (KRAS amplified) cells
Kind of test: KRASamp MSD assay. The following applies: KE39 (KRAS amplified) cells, treated with test compounds for 24 hr, MSD readout of KRAS degradation. A digest of the protocol:
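Degradation DC50 derived by curve fitting, with KRAS levels quantified by MSD electrochemiluminescence (capture/detection antibodies, recombinant WT KRAS standard). Lysates prepared from KE39 cells (KRAS amplified) exposed to test compounds for 24 hr.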

Bounds are passed on as bounds.

T2 sequence (P01116 1-188 isoform P01116-2 G12V): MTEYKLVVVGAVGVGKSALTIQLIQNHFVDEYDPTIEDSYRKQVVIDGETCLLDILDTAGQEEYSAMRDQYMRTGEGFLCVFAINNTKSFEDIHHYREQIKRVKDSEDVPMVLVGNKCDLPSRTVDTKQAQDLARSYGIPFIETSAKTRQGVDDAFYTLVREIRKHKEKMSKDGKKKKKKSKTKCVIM
T3 sequence (P01116 1-188 isoform P01116-2): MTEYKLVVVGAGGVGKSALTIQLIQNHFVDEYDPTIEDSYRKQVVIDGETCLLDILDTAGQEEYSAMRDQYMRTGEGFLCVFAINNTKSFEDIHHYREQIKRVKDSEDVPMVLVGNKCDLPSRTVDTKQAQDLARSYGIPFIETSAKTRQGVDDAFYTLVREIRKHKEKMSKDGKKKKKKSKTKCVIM
T1 sequence (P01116 1-188 isoform P01116-2 G12D): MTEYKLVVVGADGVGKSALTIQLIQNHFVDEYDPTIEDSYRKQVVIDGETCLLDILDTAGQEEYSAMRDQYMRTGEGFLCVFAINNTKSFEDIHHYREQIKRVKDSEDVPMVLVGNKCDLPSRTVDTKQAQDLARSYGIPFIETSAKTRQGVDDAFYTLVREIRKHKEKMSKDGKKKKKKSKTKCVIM

On to `CCc1c(F)ccc2cc(O)cc(-c3ncc4c(N5CCC[C@@](C)(O)C5)nc(OC[C@]56CCCN5[C@H](COC(=O)N5CCC(Oc7ccc8c(c7)n(C)c(=O)n8C7CCC(=O)NC7=O)CC5)CC6)nc4c3F)c12` (stereo partly drawn) [Compound 330, ((3S,7aR)-7a-(((7-(8-ethyl-7-fluoro-3-hydroxynaphthalen-1-yl)-8-fluoro-4-((R)-3-hydroxy-3-methylpiperidin-1-yl)pyrido[4,3-d]pyrimidin-2-yl)oxy)methyl)hexahydro-1H-pyrrolizin-3-yl)methyl 4-((1-(2,6-dioxopiperidin-3-yl)-3-methyl-2-oxo-2,3-dihydro-1H-benzo[d]imidazol-5-yl)oxy)piperidine-1-carboxylate], for which the DC50 was more than 100 nM at KRAS G12D (numeric bounds given in place of class symbols), more than 100 nM at KRAS G12V and 1 to 10 nM at KRAS.

Turning to `C#Cc1c(F)ccc2cc(O)cc(-c3ncc4c(N5CCCCCC5)nc(OC[C@@]56CCCN5[C@H](COC(=O)N5CCC(CN7CCC(c8ccc9c(c8)n(C)c(=O)n9C8CCC(=O)NC8=O)CC7)CC5)CC6)nc4c3F)c12` (stereo partly drawn) [Compound 123, ((3S,7aS)-7a-(((4-(Azepan-1-yl)-7-(8-ethynyl-7-fluoro-3-hydroxynaphthalen-1-yl)-8-fluoropyrido[4,3-d]pyrimidin-2-yl)oxy)methyl)hexahydro-1H-pyrrolizin-3-yl)methyl4-((4-(1-(2,6-dioxopiperidin-3-yl)-3-methyl-2-oxo-2,3-dihydro-1H-benzo[d]imidazol-5-yl)piperidin-1-yl)methyl) piperidine-1-carboxylate], the DC50 at KRAS G12D (class symbols) is less than 100 nM; at KRAS G12V, less than 10 nM; on KRAS, less than 1 nM. At KRAS G12D (class symbols), this compound had a Dmax of more than 50%.

`CCc1c(F)ccc2cc(O)cc(-c3ncc4c(N5CCC[C@@](C)(O)C5)nc(OC[C@@]56CCCN5[C@H](COC(=O)N5CCC(OCCC#Cc7cccc8c7n(C)c(=O)n8C7CCC(=O)NC7=O)CC5)CC6)nc4c3F)c12` (stereo partly drawn) [Compound 370, ((3S,7aS)-7a-(((7-(8-Ethyl-7-fluoro-3-hydroxynaphthalen-1-yl)-8-fluoro-4-((R)-3-hydroxy-3-methylpiperidin-1-yl)pyrido[4,3-d]pyrimidin-2-yl)oxy)methyl)hexahydro-1H-pyrrolizin-3-yl)methyl4-((4-(1-(2,6-dioxopiperidin-3-yl)-3-methyl-2-oxo-2,3-dihydro-1H-benzo[d]imidazol-4-yl)but-3-yn-1-yl)oxy)piperidine-1-carboxylate]: the DC50 on KRAS G12D (class symbols) was less than 100 nM; on KRAS G12V it was less than 10 nM; at KRAS, 1 to 10 nM.

In the case of `CCc1c(F)ccc2cc(O)cc(-c3ncc4c(N5CCC[C@@](C)(O)C5)nc(OC[C@@]56CCCN5[C@H](COC(=O)NC5CCN(C7CCN(c8ccc9c(c8)n(C)c(=O)n9C8CCC(=O)NC8=O)CC7)CC5)CC6)nc4c3F)c12` (stereo partly drawn) [Compound 427, ((3S,7aS)-7a-(((7-(8-ethyl-7-fluoro-3-hydroxynaphthalen-1-yl)-8-fluoro-4-((R)-3-hydroxy-3-methylpiperidin-1-yl)pyrido[4,3-d]pyrimidin-2-yl)oxy)methyl)hexahydro-1H-pyrrolizin-3-yl)methyl (1′-(1-(2,6-dioxopiperidin-3-yl)-3-methyl-2-oxo-2,3-dihydro-1H-benzo[d]imidazol-5-yl)-[1,4′-bipiperidin]-4-yl)carbamate], the DC50 was less than 100 nM on KRAS G12D (class symbols), 10 to 100 nM at KRAS G12V and not below 10 nM at KRAS.

Consider `C#Cc1c(F)ccc2cc(O)cc(-c3ncc4c(N5CCC[C@@](C)(O)C5)nc(OC[C@@]56CCCN5[C@H](COC(=O)N5CCC(OCCC#Cc7ccc8c(c7)n(C)c(=O)n8C7CCC(=O)NC7=O)CC5)CC6)nc4c3F)c12` (stereo partly drawn) [Compound 369, ((3S,7aS)-7a-(((7-(8-ethynyl-7-fluoro-3-hydroxynaphthalen-1-yl)-8-fluoro-4-((R)-3-hydroxy-3-methylpiperidin-1-yl)pyrido[4,3-d]pyrimidin-2-yl)oxy)methyl)hexahydro-1H-pyrrolizin-3-yl)methyl 4-((4-(1-(2,6-dioxopiperidin-3-yl)-3-methyl-2-oxo-2,3-dihydro-1H-benzo[d]imidazol-5-yl)but-3-yn-1-yl)oxy)piperidine-1-carboxylate], for which the DC50 is less than 100 nM at KRAS G12D (class symbols), less than 10 nM on KRAS G12V and 1 to 10 nM at KRAS.
